Results from US11279735B2, “Cyclic peptide antibiotics” (priority 2017, dated 2022).
≈ marks a conversion by molar mass, not a printed value. *1 amine or outer side, *2 acyl side, *3 side chain or, on linkers, in order; H or OH if unused. Where a SMILES comes first, the peptide text is derived from it. [ ]: non-standard residue; d: D form. The star is where a group is joined. X13 = C[C@H](CO[C@H](CC1CC2(CCC2)C1)[C@@H](C)C(=O)[*:2])N[*:1]; X2 = CCCCCC[C@@H](OC[C@@H](C)N[*:1])[C@@H](C)C(=O)[*:2]; X9 = CCCCCC(C)[C@@H](OC[C@@H](C)N[*:1])C(C)C(=O)[*:2]; Cyclobutyl(trans-3-NH2) = N[C@H]1C[C@H](*)C1; Gly(cHept) = N[C@H](C(=O)O)C1CCCCCC1; aThr = C[C@H](O)[C@H](N)C(=O)O; NMeL = CN[C@@H](CC(C)C)C(=O)O; Chg = N[C@H](C(=O)O)C1CCCCC1; NMeNva = CCC[C@H](NC)C(=O)O; X8 = NC[C@H]1C[C@H](*)C1; Dap = NC[C@H](N)C(=O)O; Propyl(3-NH2) = NCCC*; X24 = NC[C@H](F)C*; X3 = NC[C@@H](F)C*; X22 = C1CC(*)CCN1; X20 = C1NCC1C*; X10 = NCCCC*

tested on: Escherichia coli (E. coli) strain CFT073 ATCC 700928; type: cell-based; conditions: ATCC 700928, 22 h
Outline: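 MICs were read after 22 h at 35 °C, with bacteria added to a final OD600 of 0.0005. Compounds were serially diluted 2-fold over ten concentrations from a top of 64, 4, 0.5 or 0.13 μg/mL (protocols 1–4). Medium was cation-adjusted Mueller Hinton II broth plus 0.002% Tween-80, following CLSI M07-A8.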

Compound	MIC [µM]
CCCCCC[C@H]1OC[C@@H](C)NC(=O)[C@H](COCCCCN)NC(=O)[C@H](CN)NC(=O)[C@H](C2CCCCCC2)NC(=O)[C@H](CCC)N(C)C(=O)[C@@H]1C [Example 152, (3R,6S,9S,12S,15S,18R,19R)-6-((4-Aminobutoxy)methyl)-9-(aminomethyl)-12-cycloheptyl-19-hexyl-3,16,18-trimethyl-15-propyl-1-oxa-4,7,10,13,16-pentaazacyclononadecane-5,8,11,14,17-pentaone] (cyclo([Dap]S(X10)[X2][NMeNva][Gly(cHept)]))	6.3 (≈ 4.65 µg/mL)
CCCCCC(C)[C@H]1OC[C@@H](C)NC(=O)[C@H]([C@H](C)O)NC(=O)[C@H](CN)NC(=O)[C@H](C2CCCCC2)NC(=O)[C@H](CC(C)C)N(C)C(=O)C1C (stereo partly drawn) [Example 153, (3R,6S,9S,12S,15S,18R,19R)-9-(Aminomethyl)-12-cyclohexyl-19-(heptan-2-yl)-6-((S)-1-hydroxyethyl)-15-isobutyl-3,16,18-trimethyl-1-oxa-4,7,10,13,16-pentaazacyclononadecane-5,8,11,14,17-pentaone] (cyclo([Chg][Dap][aThr][X9][NMeL]))	1.6 (≈ 1.11 µg/mL)
CCC[C@H]1C(=O)N[C@@H](C2CCCCC2)C(=O)N[C@@H](CN)C(=O)N[C@@H]([C@H](C)O)C(=O)N[C@H](C)CO[C@H](CC2CC3(CCC3)C2)[C@@H](C)C(=O)N1C [Example 156, (3R,6S,9S,12S,15S,18R,19R)-9-(Aminomethyl)-12-cyclohexyl-6-((S)-1-hydroxyethyl)-3,16,18-trimethyl-15-propyl-19-(spiro[3.3]heptan-2-ylmethyl)-1-oxa-4,7,10,13,16-pcntaazacyclononadecane-5,8,11,14,17-pentaone] (cyclo([Chg][Dap][aThr][X13][NMeNva]))	2.2 (≈ 1.52 µg/mL)
CCC[C@H]1C(=O)N[C@@H](C2CCCCCC2)C(=O)N[C@@H](CN)C(=O)N[C@@H](CO[C@H]2C[C@H](N)C2)C(=O)N[C@H](C)CO[C@H](CC2CC3(CCC3)C2)[C@@H](C)C(=O)N1C [Example 164, (3R,6S,9S,12S,15S,18R,19R)-6-(((1r,3S)-3-Aminocyclobutoxy)methyl)-9-(aminomethyl)-12-cycloheptyl-3,16,18-trimethyl-15-propyl-19-(spiro[3.3]heptan-2-ylmethyl)-1-oxa-4,7,10,13,16-pentaazacyclononadecane-5,8,11,14,17-pentaone] (cyclo([Dap]S(Cyclobutyl(trans-3-NH2))[X13][NMeNva][Gly(cHept)]))	2.2 (≈ 1.67 µg/mL)
CCCCCC[C@H]1OC[C@@H](C)NC(=O)[C@H](CO[C@H]2C[C@H](CN)C2)NC(=O)[C@H](CN)NC(=O)[C@H](C2CCCCCC2)NC(=O)[C@H](CCC)N(C)C(=O)[C@@H]1C [Example 168, (3R,6S,9S,12S,15S,18R,19R)-9-(Aminomethyl)-6-(((1r,3S)-3-(aminomethyl)cyclobutoxy)methyl)-12-cycloheptyl-19-hexyl-3,16,18-trimethyl-15-propyl-1-oxa-4,7,10,13,16-pentaazacyclononadecane-5,8,11,14,17-pentaone] (cyclo([Dap]S(X8)[X2][NMeNva][Gly(cHept)]))	3.1 (≈ 2.33 µg/mL)
CCC[C@H]1C(=O)N[C@@H](C2CCCCC2)C(=O)N[C@@H](CN)C(=O)N[C@@H](CO[C@H]2C[C@H](N)C2)C(=O)N[C@H](C)CO[C@H](CC2CC3(CCC3)C2)[C@@H](C)C(=O)N1C [Example 172, (3R,6S,9S,12S,15S,18R,19R)-6-(((1r,3S)-3-Aminocyclobutoxy)methyl)-9-(aminomethyl)-12-cyclohexyl-3,16,18-trimethyl-15-propyl-19-(spiro[3.3]heptan-2-ylmethyl)-1-oxa-4,7,10,13,16-pentaazacyclononadecane-5,8,11,14,17-pentaone] (cyclo([Chg][Dap]S(Cyclobutyl(trans-3-NH2))[X13][NMeNva]))	4.4 (≈ 3.28 µg/mL)

The remaining lines, values ahead:

MIC [µM]	Compound
12 (≈ 8.81 µg/mL)	CCC[C@H]1C(=O)N[C@@H](C2CCCCC2)C(=O)N[C@@H](CN)C(=O)N[C@@H](COCCCN)C(=O)N[C@H](C)CO[C@H](CC2CC3(CCC3)C2)[C@@H](C)C(=O)N1C [Example 157, (3R,6S,9S,12S,15S,18R,19R)-9-(Aminomethyl)-6-((3-aminopropoxy)methyl)-12-cyclohexyl-3,16,18-trimethyl-15-propyl-19-(spiro[3.3]heptan-2-ylmethyl)-1-oxa-4,7,10,13,16-pentaazacyclononadecane-5,8,11,14,17-pentaone] (cyclo([Chg][Dap]S(Propyl(3-NH2))[X13][NMeNva]))
3.1 (≈ 2.32 µg/mL)	CCC[C@H]1C(=O)N[C@@H](C2CCCCCC2)C(=O)N[C@@H](CN)C(=O)N[C@@H](COCCCN)C(=O)N[C@H](C)CO[C@H](CC2CC3(CCC3)C2)[C@@H](C)C(=O)N1C [Example 159, (3R,6S,9S,12S,15S,18R,19R)-9-(Aminomethyl)-6-((3-aminopropoxy)methyl)-12-cycloheptyl-3,16,18-trimethyl-15-propyl-19-(spiro[3.3]heptan-2-ylmethyl)-1-oxa-4,7,10,13,16-pentaazacyclononadecane-5,8,11,14,17-pentaone] (cyclo([Dap]S(Propyl(3-NH2))[X13][NMeNva][Gly(cHept)]))
6.3 (≈ 4.56 µg/mL)	CCCCCC[C@H]1OC[C@@H](C)NC(=O)[C@H](CNCCN)NC(=O)[C@H](CN)NC(=O)[C@H](C2CCCCCC2)NC(=O)[C@H](CC(C)C)N(C)C(=O)[C@@H]1C [Example 161, (3R,6S,9S,12S,15S,18R,19R)-6-[(2-Aminoethylamino)methyl]-9-(aminomethyl)-12-cycloheptyl-19-hexyl-15-isobutyl-3,16,18-trimethyl-1-oxa-4,7,10,13,16-pentazacyclononadecane-5,8,11,14,17-pentone]
3.1 (≈ 2.14 µg/mL)	CCCCCC[C@H]1OC(=O)CNC(=O)[C@H](C2CCC2)NC(=O)[C@H](CN)NC(=O)[C@H](C2CCCCC2)NC(=O)[C@H](CC(C)C)N(C)C(=O)[C@@H]1C [Example 162, (6S,9S,12S,15S,18R,19R)-9-(Aminomethyl)-6-cyclobutyl-12-cyclohexyl-19-hexyl-15-isobutyl-16,18-dimethyl-1-oxa-4,7,10,13,16-pentaazacyclononadecane-2,5,8,11,14,17-hexaone]
4.4 (≈ 3.41 µg/mL)	CCC[C@H]1C(=O)N[C@@H](C2CCCCCC2)C(=O)N[C@@H](CN)C(=O)N[C@@H](COC2CCNCC2)C(=O)N[C@H](C)CO[C@H](CC2CC3(CCC3)C2)[C@@H](C)C(=O)N1C [Example 163, (3R,6S,9S,12S,15S,18R,19R)-9-(Aminomethyl)-12-cycloheptyl-3,16,18-trimethyl-6-((piperidin-4-yloxy)methyl)-15-propyl-19-(spiro[3.3]heptan-2-ylmethyl)-1-oxa-4,7,10,13,16-pentaazacyclononadecane-5,8,11,14,17-pentaone] (cyclo([Dap]S(X22)[X13][NMeNva][Gly(cHept)]))
1.6 (≈ 1.24 µg/mL)	CCCCCC[C@H]1OC[C@@H](C)NC(=O)[C@H](COc2cccc(CN)c2)NC(=O)[C@H](CN)NC(=O)[C@H](C2CCCCC2)NC(=O)[C@H](CC(C)C)N(C)C(=O)[C@@H]1C [Example 167, (3R,6S,9S,12S,15S,18R,19R)-9-(Aminomethyl)-6-((3-(aminomethyl)phenoxy)methyl)-12-cyclohexyl-19-hexyl-15-isobutyl-3,16,18-trimethyl-1-oxa-4,7,10,13,16-pentaazacyclononadecane-5,8,11,14,17-pentaone]
6.3 (≈ 4.56 µg/mL)	CCCCCC[C@H]1OC[C@@H](C)NC(=O)[C@H](CNCCO)NC(=O)[C@H](CN)NC(=O)[C@H](C2CCCCCC2)NC(=O)[C@H](CC(C)C)N(C)C(=O)[C@@H]1C [Example 169, (3R,6S,9S,12S,15S,18R,19R)-9-(Aminomethyl)-12-cycloheptyl-19-hexyl-6-(((2-hydroxyethyl)amino)methyl)-15-isobutyl-3,16,18-trimethyl-1-oxa-4,7,10,13,16-pentaazacyclononadecane-5,8,11,14,17-pentaone]
6.3 (≈ 4.79 µg/mL)	CCC[C@H]1C(=O)N[C@@H](C2CCCCCC2)C(=O)N[C@@H](CN)C(=O)N[C@@H](COCC2CNC2)C(=O)N[C@H](C)CO[C@H](CC2CC3(CCC3)C2)[C@@H](C)C(=O)N1C [Example 171, (3R,6S,9S,12S,15S,18R,19R)-9-(Aminomethyl)-6-((azetidin-3-ylmethoxy)methyl)-12-cycloheptyl-3,16,18-trimethyl-15-propyl-19-(spiro[3.3]heptan-2-ylmethyl)-1-oxa-4,7,10,13,16-pentaazacyclononadecane-5,8,11,14,17-pentaone] (cyclo([Dap]S(X20)[X13][NMeNva][Gly(cHept)]))

same assay, conditions: E. coli CFT073 ATCC 700928; Mueller Hinton II cation adjusted Broth with 0.002% v/v Tween-80; 35° C. for 22 hours; lowest concentration that completely prevented bacterial growth

Compound	MIC [µM]
CCCCCC[C@H]1OC[C@@H](C)NC(=O)[C@H](COC[C@H](F)CN)NC(=O)[C@H](CN)NC(=O)[C@H](C2CCCCC2)NC(=O)[C@H](CC(C)C)N(C)C(=O)[C@@H]1C [Example 154, (3R,6S,9S,12S,15S,18R,19R)-6-(((R)-3-Amino-2-fluoropropoxy)methyl)-9-(aminomethyl)-12-cyclohexyl-19-hexyl-15-isobutyl-3,16,18-trimethyl-1-oxa-4,7,10,13,16-pentaazacyclononadecane-5,8,11,14,17-pentaone] (cyclo([Chg][Dap]S(X3)[X2][NMeL]))	12 (≈ 8.9 µg/mL)
CCCCCC[C@H]1OC[C@@H](C)NC(=O)[C@H](COC[C@@H](F)CN)NC(=O)[C@H](CN)NC(=O)[C@H](C2CCCCC2)NC(=O)[C@H](CC(C)C)N(C)C(=O)[C@@H]1C [Example 158, (3R,6S,9S,12S,15S,18R,19R)-6-(((S)-3-Amino-2-fluoropropoxy)methyl)-9-(aminomethyl)-12-cyclohexyl-19-hexyl-15-isobutyl-3,16,18-trimethyl-1-oxa-4,7,10,13,16-pentaazacyclononadecane-5,8,11,14,17-pentaone] (cyclo([Chg][Dap]S(X24)[X2][NMeL]))	12 (≈ 8.9 µg/mL)
